Laboratory results reported in patent US20240254103A9, “NOVEL PYRIMIDINE DERIVATIVE, AND COMPOSITION FOR PREVENTING OR TREATING NEURODEGENERATIVE DISEASES AND CANCER, COMPRISING SAME” (WHAN IN PHARMACEUTICAL CO., LTD., priority 2020, published 2024).

Target: T1, wild-type LRRK2 (Homo sapiens, UniProt Q5S007)
T1 construct: DNA tag for qPCR detection (not a peptide; the protein part that carries it is not described); made in house; host or cells: HEK 293 cells (the same paragraph also describes T7 phage grown in E. coli BL21)
T1 sequence (Q5S007 970-2527): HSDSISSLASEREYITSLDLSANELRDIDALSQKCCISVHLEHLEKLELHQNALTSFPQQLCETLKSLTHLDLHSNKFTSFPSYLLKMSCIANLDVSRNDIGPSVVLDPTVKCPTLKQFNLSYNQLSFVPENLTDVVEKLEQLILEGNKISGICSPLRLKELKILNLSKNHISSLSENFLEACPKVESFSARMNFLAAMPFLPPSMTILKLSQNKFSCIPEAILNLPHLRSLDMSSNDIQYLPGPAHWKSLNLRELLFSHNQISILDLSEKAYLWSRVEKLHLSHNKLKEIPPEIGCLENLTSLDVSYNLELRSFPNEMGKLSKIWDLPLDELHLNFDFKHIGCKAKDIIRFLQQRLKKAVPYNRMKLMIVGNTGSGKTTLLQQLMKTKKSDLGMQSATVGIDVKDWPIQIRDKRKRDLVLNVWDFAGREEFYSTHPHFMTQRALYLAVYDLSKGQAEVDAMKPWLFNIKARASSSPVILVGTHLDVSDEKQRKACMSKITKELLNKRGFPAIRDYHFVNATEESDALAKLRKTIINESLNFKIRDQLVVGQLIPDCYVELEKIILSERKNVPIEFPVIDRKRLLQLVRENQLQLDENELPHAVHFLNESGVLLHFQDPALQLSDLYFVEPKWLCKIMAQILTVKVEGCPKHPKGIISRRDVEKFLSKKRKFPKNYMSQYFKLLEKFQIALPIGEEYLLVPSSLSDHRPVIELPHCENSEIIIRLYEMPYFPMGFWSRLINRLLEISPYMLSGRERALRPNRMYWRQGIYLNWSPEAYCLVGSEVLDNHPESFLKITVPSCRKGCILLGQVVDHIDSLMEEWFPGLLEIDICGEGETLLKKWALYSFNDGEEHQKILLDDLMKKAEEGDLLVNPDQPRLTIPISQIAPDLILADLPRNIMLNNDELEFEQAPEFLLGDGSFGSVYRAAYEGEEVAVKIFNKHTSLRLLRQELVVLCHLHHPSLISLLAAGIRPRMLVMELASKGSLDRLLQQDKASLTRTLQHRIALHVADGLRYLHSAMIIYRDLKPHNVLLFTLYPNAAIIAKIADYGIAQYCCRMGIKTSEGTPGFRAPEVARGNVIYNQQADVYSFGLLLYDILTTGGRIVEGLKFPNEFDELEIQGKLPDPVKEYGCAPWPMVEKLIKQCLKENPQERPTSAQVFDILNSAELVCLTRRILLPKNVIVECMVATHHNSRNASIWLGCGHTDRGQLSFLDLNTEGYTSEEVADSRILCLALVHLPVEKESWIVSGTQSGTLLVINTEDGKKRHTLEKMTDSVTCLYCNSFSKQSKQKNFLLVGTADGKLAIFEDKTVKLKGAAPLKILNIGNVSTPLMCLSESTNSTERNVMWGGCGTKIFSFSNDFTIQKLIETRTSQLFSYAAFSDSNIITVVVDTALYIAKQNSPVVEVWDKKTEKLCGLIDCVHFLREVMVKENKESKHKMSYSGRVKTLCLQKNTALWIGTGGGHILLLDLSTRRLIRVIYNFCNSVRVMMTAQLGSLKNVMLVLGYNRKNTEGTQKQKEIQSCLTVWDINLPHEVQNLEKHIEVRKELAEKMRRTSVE
Assay: Inhibitory activity against LRRK2: competition binding to ligand-affinity beads, DNA-tagged kinase quantitated by qPCR
Conditions: % of ctrl; for remaining binding at 0.01 µM: 10 nM compound, read-out: LRRK2(WT) Remaining kinase activity(%) at 10 nM; for remaining binding at 0.05 µM: 50 nM compound, read-out: LRRK2(WT) Remaining kinase activity(%) at 50 nM
Experimental: Representative compounds synthesized in Example 1 were assayed for inhibitory activity against wild-type LRRK2 and mutant LRRK2 (G2019S), and the results are summarized in Tables 2 and 3. In brief, a T7 phase strain carrying the wild-type kinase consisting of amino acid residues from H970 to E2527 of human-derived LRRK2 (Accession no. NP_940980.3) or a T7 phase strain carrying the G2019S mutation kinase was infected into E. coli strain BL21 which was then grown until log phase. After infection with T7 phases (multiplicity of infection=0.4), the cells were cultured at 32° C. for 90-150 minutes while shaking. Then, E. coli lysates were centrifuged (6,000×g) and the supernatant was filtered through a 0.2-μm filter. The kinases were produced in HEK 293 cells. In this regard, DNA was tagged to obtain DNA-tagged kinases for qPCR detection. For use in analyzing the kinases, affinity resins were prepared by treating streptavidin-coated magnetic beads with biotinylated small molecule ligands at room temperature for 30 minutes. Then, the liganded beads were blocked with an excess of biotin and washed with a blocking buffer (SeaBlock (Pierce), 1% BSA, 0.05% Tween 20, 1 mM DTT) to remove unbound ligands and thus to reduce the binding of non-specific phages. […] After one hour of incubation, the affinity beads were washed with a wash buffer (1×PBS, 0.05% Tween 20), resuspended in an elution buffer (1×PBS, 0.05% Tween 20, 0.5 μM non-biotinylated affinity ligand), and incubated at room temperature for 30 minutes while shaking. Afterwards, concentrations of wild-type LRRK2 and mutant LRRK2 (G2019S) in the eluted samples were quantitated by qPCR. Activity values are expressed as percentages relative to the control (% of ctrl). The compounds used in the activity assay were prepared into 40× stocks in 100% DMSO. The stocks were directly diluted during analysis procedures.
Table 2 includes inhibitory activities of the representative compounds of the present disclosure at 100 nM against wild-type LRRK2 and mutant LRRK2 (G2019S) while Table 3 includes inhibitory activities of the representative compounds at 10 nM and 50 nM against wild-type LRRK2. (+++ less than 10%; ++ less than 30%; + less than 50%; −50% or higher)

Row | remaining binding at 0.01 µM [%] | remaining binding at 0.05 µM [%] | SMILES
1 | ≥ 50 | < 30 | COc1cc(C(=O)NC2CCN(C)CC2)ccc1Nc1ncc(Cl)c(-c2cnn(C(C)(C)C)c2)n1 [Compound 96, 4-((4-(1-(tert-butyl)-1H-pyrazol-4-yl)-5-chloropyrimidin-2-yl)amino)-3-methoxy-N -(1-methylpiperidin-4-yl)benzamide]
2 | < 30 | < 10 | COc1cc(C(=O)N2CC3CN(C)CC3C2)ccc1Nc1ncc(Cl)c(-c2cnn(C(C)C)c2)n1 (stereo not drawn) [Compound 98, (4-((5-chloro-4-(1-isopropyl-1H-pyrazol-4-yl)pyrimidin-2-yl)amino)-3-methoxyphenyl)(5-methylhexahydropyrrolo[3,4-c]pyrrol-2(1H)-yl)methanone]
3 | < 50 | < 30 | COc1cc(C(=O)NC2CCN(C(C)C)CC2)ccc1Nc1ncc(Cl)c(-c2cnn(C(C)C)c2)n1 [Compound 99, 4-((5-chloro-4-(1-isopropyl-1H-pyrazol-4-yl)pyrimidin-2-yl)amino)-N-(1-isopropylpiperidin-4-yl)-3-methoxybenzamide]
4 | ≥ 50 | < 50 | COc1cc(C(=O)N(C)C)ccc1Nc1ncc(Cl)c(-c2cnn(C(C)C)c2)n1 [Compound 101, 4-((5-chloro-4-(1-isopropyl-1H-pyrazol-4-yl)pyrimidin-2-yl)amino)-3-methoxy-N,N-dimethylbenzamide]
5 | < 50 | < 10 | COc1cc(C(=S)N2CCN(C)CC2)c(F)cc1Nc1ncc(Cl)c(-c2cnn(C(C)C)c2)n1 [Compound 102, (4-((5-chloro-4-(1-isopropyl-1H-pyrazol-4-yl)pyrimidin-2-yl)amino)-2-fluoro-5-methoxyphenyl)(4-methylpiperazin-1-yl) methanethione]
6 | < 30 | < 10 | COc1cc(C(=S)N2CCN(C)CC2)ccc1Nc1ncc(Cl)c(-c2cnn(C(C)C)c2)n1 [Compound 103, (4-((5-chloro-4-(1-isopropyl-1H-pyrazol-4-yl)pyrimidin-2-yl)amino)-3-methoxyphenyl)(4-methylpiperazin-1-yl) methanethione]
7 | ≥ 50 | < 30 | COc1cc(C(=O)N2CCN(C)CC2)c(F)cc1Nc1ncc(Cl)c(-c2cnn(C(C)C)c2)n1 [Compound 104, (4-((5-chloro-4-(1-isopropyl-1H-pyrazol-4-yl)pyrimidin-2-yl)amino)-2-fluoro-5-methoxyphenyl)(4-methylpiperazin-1-yl)methanone]
8 | < 50 | < 30 | CC(C)n1cc(-c2nc(Nc3ccc(C(=O)N4CCOCC4)cc3OC(F)F)ncc2Cl)cn1 [Compound 105, (4-((5-chloro-4-(1-isopropyl-1H-pyrazol-4-yl)pyrimidin-2-yl)amino)-3-(difluoromethoxy)phenyl)(morpholino)methanone]
9 | ≥ 50 | < 30 | COc1cc(C(=S)N2CCOCC2)c(F)cc1Nc1ncc(Cl)c(-c2cnn(C(C)C)c2)n1 [Compound 106, (4-((5-chloro-4-(1-isopropyl-1H-pyrazol-4-yl)pyrimidin-2-yl)amino)-2-fluoro-5-methoxyphenyl)(morpholino) methanethione]
10 | ≥ 50 | < 30 | CC(C)n1cc(-c2nc(Nc3ccc(C(=O)N4CCN(C)CC4)cc3OC(F)F)ncc2Cl)cn1 [Compound 108, (4-((5-chloro-4-(1-isopropyl-1H-pyrazol-4-yl)pyrimidin-2-yl)amino)-3-(difluoromethoxy)phenyl)(4-methylpiperazin-1-yl)methanone]
11 | ≥ 50 | < 30 | Cc1cc(C(=O)N2CCN(C)CC2)ccc1Nc1ncc(Cl)c(-c2cnn(C(C)C)c2)n1 [Compound 109, (4-((5-chloro-4-(1-isopropyl-1H-pyrazol-4-yl)pyrimidin-2-yl)amino)-3-methylphenyl)(4-methylpiperazin-1-yl)methanone]
12 | < 50 | < 10 | COc1cc(C(=O)N2CCC(N(C)C)CC2)c(F)cc1Nc1ncc(Cl)c(-c2cnn(C(C)C)c2)n1 [Compound 110, (4-((5-chloro-4-(1-isopropyl-1H-pyrazol-4-yl)pyrimidin-2-yl)amino)-2-fluoro-5-methoxyphenyl)(4-(dimethylamino)piperidin-1-yl)methanone]
13 | < 50 | < 30 | COc1cc(C(=O)Nc2ccccc2)ccc1Nc1ncc(Cl)c(-c2cnn(C(C)C)c2)n1 [Compound 112, 4-((5-chloro-4-(1-isopropyl-1H-pyrazol-4-yl)pyrimidin-2-yl)amino)-3-methoxy-N-phenylbenzamide]
14 | ≥ 50 | < 50 | COc1cc(C(=O)NCc2ccc(C)cc2)ccc1Nc1ncc(Cl)c(-c2cnn(C(C)C)c2)n1 [Compound 126, 4-((5-chloro-4-(1-isopropyl-1H-pyrazol-4-yl)pyrimidin-2-yl)amino)-3-methoxy-N-(4-methylbenzyl)benzamide]
15 | < 50 | < 30 | COc1cc(C(=O)Nc2ccc(N(C)C)cc2)ccc1Nc1ncc(Cl)c(-c2cnn(C(C)C)c2)n1 [Compound 127, 4-((5-chloro-4-(1-isopropyl-1H-pyrazol-4-yl)pyrimidin-2-yl)amino)-N-(4-(dimethylamino)phenyl)-3-methoxybenzamide]
16 | ≥ 50 | < 50 | COc1cc(C(=O)NCc2ccc(C#N)cc2)ccc1Nc1ncc(Cl)c(-c2cnn(C(C)C)c2)n1 [Compound 128, 4-((5-chloro-4-(1-isopropyl-1H-pyrazol-4-yl)pyrimidin-2-yl)amino)-N-(4-cyanobenzyl)-3-methoxybenzamide]
17 | ≥ 50 | < 50 | COc1cc(C(=O)NC2Cc3ccccc3C2)ccc1Nc1ncc(Cl)c(-c2cnn(C(C)C)c2)n1 [Compound 129, 4-((5-chloro-4-(1-isopropyl-1H-pyrazol-4-yl)pyrimidin-2-yl)amino)-N-(2,3-dihydro-1H-inden-2-yl)-3-methoxybenzamide]
18 | ≥ 50 | < 30 | COc1cc(C(=O)NCC2CCOC2)ccc1Nc1ncc(Cl)c(-c2cnn(C(C)C)c2)n1 (stereo not drawn) [Compound 130, 4-((5-chloro-4-(1-isopropyl-1H-pyrazol-4-yl)pyrimidin-2-yl)amino)-3-methoxy-N-((tetrahydrofuran-3-yl)methyl)benzamide]
19 | ≥ 50 | < 50 | COc1cc(C(=O)NCCO)ccc1Nc1ncc(Cl)c(-c2cnn(C(C)C)c2)n1 [Compound 138, 4-((5-chloro-4-(1-isopropyl-1H-pyrazol-4-yl)pyrimidin-2-yl)amino)-N-(2-hydroxyethyl)-3-methoxybenzamide]
20 | ≥ 50 | < 30 | COCCNC(=O)c1ccc(Nc2ncc(Cl)c(-c3cnn(C(C)C)c3)n2)c(OC)c1 [Compound 140, 4-((5-chloro-4-(1-isopropyl-1H-pyrazol-4-yl)pyrimidin-2-yl)amino)-3-methoxy-N-(2-methoxyethyl)benzamide]
21 | ≥ 50 | < 30 | COc1cc(C(=O)N(C)CCO)ccc1Nc1ncc(Cl)c(-c2cnn(C(C)C)c2)n1 [Compound 141, 4-((5-chloro-4-(1-isopropyl-1H-pyrazol-4-yl)pyrimidin-2-yl)amino)-N-(2-hydroxyethyl)-3-methoxy-N-methylbenzamide]
22 | ≥ 50 | < 50 | COc1cc(C(=O)Nc2ccc(Cl)cc2)ccc1Nc1ncc(Cl)c(-c2cnn(C(C)C)c2)n1 [Compound 151, 4-((5-chloro-4-(1-isopropyl-1H-pyrazol-4-yl)pyrimidin-2-yl)amino)-N-(4-chlorophenyl)-3-methoxybenzamide]
23 | ≥ 50 | < 30 | COc1cc(C(=O)NCc2cccc(O)c2)ccc1Nc1ncc(Cl)c(-c2cnn(C(C)C)c2)n1 [Compound 152, 4-((5-chloro-4-(1-isopropyl-1H-pyrazol-4-yl)pyrimidin-2-yl)amino)-N-(3-hydroxybenzyl)-3-methoxybenzamide]

Row | SMILES | remaining binding at 0.01 µM [%] | remaining binding at 0.05 µM [%]
24 | COc1cc(C(=O)N2[C@@H]3CC[C@H]2COC3)ccc1Nc1ncc(Cl)c(-c2cnn(C(C)C)c2)n1 [Compound 95, ((1R,5S)-3-oxa-8-azabicyclo[3.2.1]octan-8-yl)(4-((5-chloro-4-(1-isopropyl-1H-pyrazol-4-yl)pyrimidin-2-yl)amino)-3-methoxyphenyl)methanone] | ≥ 50 | < 30
